# Assay results: ChEMBL document CHEMBL1155170, “Rapid dissemination and diversity of CTX-M extended-spectrum beta-lactamase genes in commensal Escherichia coli isolates from healthy children from low-resource settings in Latin America” (2007)
# What was measured:
# Escherichia coli [1] = assay: Antimicrobial activity against CTX-M extended-spectrum beta-lactamase producing commensal Escherichia coli isolates from healthy children assessed as percent resistant isolates by disc diffusion method; type: functional
# Escherichia coli [2] = assay: Antimicrobial activity against CTX-M-15 extended-spectrum beta-lactamase producing commensal Escherichia coli isolates from healthy children assessed as percent resistant isolates by disc diffusion method; type: functional
SMILES,Activity (Escherichia coli [1]) [%],Activity (Escherichia coli [2]) [%]
O=C(O)c1cn(C2CC2)c2cc(N3CCNCC3)c(F)cc2c1=O [CIPROFLOXACIN],54,93
CCn1cc(C(=O)O)c(=O)c2ccc(C)nc21 [NALIDIXIC ACID],57,93
CN(C)[C@@H]1C(O)=C(C(N)=O)C(=O)[C@@]2(O)C(O)=C3C(=O)c4c(O)cccc4[C@@](C)(O)[C@H]3C[C@@H]12 [TETRACYCLINE],86,–
